For one compound, IC50, Activity and fold change (FC) results are on record in ChEMBL document CHEMBL5247584, “Design, synthesis and evaluation of fused hybrids with acetylcholinesterase inhibiting and Nrf2 activating functions for Alzheimer's disease” (Eur J Med Chem, 2022).

Active and inactive are the calls of the source. The calls are words filed in the database; no cut-off is given here.

Experiment [1] addresses Acetylcholinesterase (Homo sapiens, UniProt P22303). The experiment is described as follows: Inhibition of human AChE using ATC and BTC iodide as substrate preincubated for 5 mins followed by substrate addition and measured after 2 mins by DTNB reagent based assay.
For experiment [2], the target named is T1, Nuclear factor erythroid 2-related factor 2 (Rattus norvegicus) (UniProt O54968).
T1 sequence (whole entry): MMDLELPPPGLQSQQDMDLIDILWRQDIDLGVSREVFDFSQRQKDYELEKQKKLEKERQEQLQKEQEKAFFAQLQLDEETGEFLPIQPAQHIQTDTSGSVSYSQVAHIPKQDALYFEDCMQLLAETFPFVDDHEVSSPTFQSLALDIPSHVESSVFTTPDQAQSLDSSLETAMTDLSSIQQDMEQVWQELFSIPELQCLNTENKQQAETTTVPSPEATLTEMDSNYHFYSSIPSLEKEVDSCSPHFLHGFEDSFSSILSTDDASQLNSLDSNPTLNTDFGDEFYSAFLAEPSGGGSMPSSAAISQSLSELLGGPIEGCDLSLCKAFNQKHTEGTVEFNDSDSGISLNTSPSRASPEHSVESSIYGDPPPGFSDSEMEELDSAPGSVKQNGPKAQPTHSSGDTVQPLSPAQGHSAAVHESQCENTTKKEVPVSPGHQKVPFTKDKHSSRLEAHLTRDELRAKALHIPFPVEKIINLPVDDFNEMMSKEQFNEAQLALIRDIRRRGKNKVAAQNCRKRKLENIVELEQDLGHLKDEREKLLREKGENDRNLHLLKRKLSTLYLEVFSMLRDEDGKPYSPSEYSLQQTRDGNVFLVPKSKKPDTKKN
Kind of experiment: Activation of Nrf2 pathway in rat PC-12 cells assessed as increase in HO-1 level at 20 uM measured after 6 hrs by Western blot analysis. It counts as cell-based. Conditions: PC12, filed as activator. On the technique in general: In western blotting, separated proteins are transferred to a membrane and probed.

In experiment [3] the target is T1, Nuclear factor erythroid 2-related factor 2 (Rattus norvegicus). The experiment is described as follows: Activation of Nrf2 pathway in rat PC-12 cells assessed as fold increase in HO-1 expression level at 1 to 20 uM measured at 6 hrs by qRT-PCR analysis. Format: cell-based. To be noted: PC12, filed as activator, dose 1-20 µM. For orientation: Quantitative PCR measures a nucleic acid by following its amplification.

For experiment [4] the target is unchanged. The experiment is described as follows: Activation of Nrf2 pathway in rat PC-12 cells assessed as fold increase in NQO1 expression level at 1 to 20 uM measured at 6 hrs by qRT-PCR analysis. It counts as cell-based. To be noted: PC12, filed as activator, dose 1-20 µM.
Experiment [5] has the same target. Kind of experiment: Activation of Nrf2 pathway in rat PC-12 cells assessed as fold increase in GCLM expression level at 1 to 20 uM measured at 6 hrs by qRT-PCR analysis. Format: cell-based. Conditions: PC12, filed as activator, dose 1-20 µM.
Experiment [6] shares this target. The experiment is described as follows: Activation of Nrf2 pathway in rat PC-12 cells assessed as decrease in Nrf2 accumulation in cytoplasm at 20 uM measured after 1 to 5 hrs by Western blot analysis. It counts as cell-based. Conditions: PC12, time 1-5 hrs.
For experiment [7], the system named is PC-12. The experiment is described as follows: Cytoprotective activity against H2O2-induced cell damage in rat PC12 cells assessed as reduction in cell injury measured after 24 hrs by MTT assay relative to control. It counts as functional, cell-based. To be noted: dose 1-20 µM. A general note: Tetrazolium dyes change colour on reduction, which living cells bring about.

In experiment [8] the test system is SH-SY5Y. Kind of experiment: Neuroprotective activity against Abeta1-42-induced human SH-SY5Y cells assessed as reduction in cell damage preinubated for 2 hrs followed by Abeta1-42 induction and measured after 24 hrs by MTT assay. It counts as functional, cell-based. To be noted: time 26.0 hrs.
The subject of experiment [9] is BV-2. Kind of experiment: Neuroprotective activity against LPS-induced mouse BV-2 cells assessed as inhibition of ROS production at 1 to 40 uM preincubated for 1 hr followed by LPS stimulation and measured after 24 hrs by DCFH-DA staining based microplate reader anlaysis. It counts as functional, cell-based. Conditions: dose 1-40 µM, time 25.0 hrs.
The test system of experiment [10] is SH-SY5Y. Kind of experiment: Antiproliferative activity against human SH-SY5Y cells assessed as reduction in cell viability measured for 24 hrs by MTT assay. Format: functional, cell-based.
Experiment [11] concerns Mus musculus. The experiment is described as follows: Antialzheimer activity against scopolamine-induced cognitive impairment ICR mouse model assessed as decrease in arrival time at 3 mg/kg, po administered once a day for 10 days and measured after 5 to 10 days by Morris water maze test. It counts as functional, organism-based. To be noted: time 5-10 day.
For experiment [12], the system named is Mus musculus. The experiment is described as follows: Antiinflammatory activity Abeta1-42-induced against ICR mouse assessed as increase in TGF-beta1 level at 10 mg/kg, po in presence of presence of donepezil by ELISA analysis. Format: functional, organism-based.
In experiment [13] the test system is Mus musculus. Kind of experiment: Neuroprotective activity against Abeta1-42-induced ICR mouse at 20 mg/kg, po by ELISA analysis. Format: functional, organism-based.

Sequence of Acetylcholinesterase (P22303 whole entry): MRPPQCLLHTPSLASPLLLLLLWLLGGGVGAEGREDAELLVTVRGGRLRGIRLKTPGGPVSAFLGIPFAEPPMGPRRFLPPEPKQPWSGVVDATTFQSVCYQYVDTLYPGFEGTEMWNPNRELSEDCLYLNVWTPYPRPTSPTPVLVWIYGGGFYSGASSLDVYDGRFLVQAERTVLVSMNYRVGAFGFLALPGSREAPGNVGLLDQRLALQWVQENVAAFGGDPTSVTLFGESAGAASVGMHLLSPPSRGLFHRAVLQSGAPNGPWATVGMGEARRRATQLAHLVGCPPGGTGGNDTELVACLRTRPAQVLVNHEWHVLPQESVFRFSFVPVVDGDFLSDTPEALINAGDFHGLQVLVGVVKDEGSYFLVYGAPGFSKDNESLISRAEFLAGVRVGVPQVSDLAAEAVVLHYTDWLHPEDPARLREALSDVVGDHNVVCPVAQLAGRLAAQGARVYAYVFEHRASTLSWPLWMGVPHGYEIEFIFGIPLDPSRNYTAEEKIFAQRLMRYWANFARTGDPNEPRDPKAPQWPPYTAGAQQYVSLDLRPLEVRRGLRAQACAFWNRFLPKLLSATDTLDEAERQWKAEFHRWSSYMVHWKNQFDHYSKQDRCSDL

By IC50 is commonly meant the concentration that inhibits the measured activity by half. Read a high IC50 as lower potency. `Cc1ccc(-c2noc(-c3cccc(OCC4CCN(Cc5cccc(F)c5)CC4)c3)n2)cn1` yielded an IC50 in experiment [1] of 0.38 µM. The result in experiment [2], in [8], in [9], in experiment [11] and in [12] was Active. For the same compound, the fold change (FC) in experiment [3], in experiment [4] and in experiment [5] was 4 throughout. The outcome in experiment [6], in [10] and in experiment [13] was inactive. The Activity entry in experiment [7] was “Dose-Dependent Effect”.
